Data taken from patent US20250325493A1, “COMPOSITIONS AND METHODS FOR MAKING AND USING POLYMER-COATED NANOCAPSULES FOR TARGETED PHARMACEUTICAL AGENT DELIVERY” (The Regents of the University of Colorado, a body Corporate, priority 2022, published 2025).

What was measured:
sBC clusters = assay: Selective delivery of PTM toxin to sBC clusters, live/dead cell quantification; type: cell-based, human; details: 24 hours, vs untreated control
Description: Blank or pentamidine (PTM) (B-cell toxin) loaded NCs were left uncoated or coated with either an ENTPD3 antibody or BSA for up to about 168 hours. Untreated and 1 μM free PTM were utilized as additional controls. […] Although benzalkonium chloride (BKC) can be used for biological applications, it can be toxic to cells at high concentrations.
In further exemplary methods, the number of GFP positive and GFP negative dead cells were quantified as GFP correlates to insulin positive cells. For the dead sBC clusters, 76% at 24 hours (FIG. 20G) and 69% at 72 hours were GFP positive (FIG. 20H).

[1] = NC stability after freeze drying with cryoprotectant; type: physicochemical
Description: In another exemplary method, NC stability after freeze drying was tested as a potential method for preserving NCs for long term storage and use including analyzing NC integrity and cargo retention for extended periods of time. In this example, mannitol (a sugar alcohol example, e.g., sorbitol and the like) was chosen as the cryoprotectant. W/O NCs were utilized for this experiment. Mannitol concentrations of 2.5% w/v, 5.0 w/v, and 10.0 w/v were tested to determine the optimal concentration (FIG. 13A). […] SEM images were taken before (FIG. 13B) and after (FIG. 13C) freeze drying to confirm DLS measurements. It was observed that the NC yield decreased after reconstitution which may be attributed to the mannitol crystallizing and imposing mechanical forces either breaking the NCs or forming aggregates. It is noted that mannitol can be removed, if needed or desired, from the NC formulations by centrifugation and washing in either water or PBS.

SMILES	percentage of dead cells (sBC clusters)	ability to replace mannitol as cryoprotectant in freeze drying of NCs [1]
N=C(N)c1ccc(OCCCCCOc2ccc(C(=N)N)cc2)cc1 [free PTM, pentamidine]	killed the majority of sBCs	
OC[C@H]1O[C@H](O[C@]2(CCl)O[C@H](CCl)[C@@H](O)[C@@H]2O)[C@H](O)[C@@H](O)[C@H]1Cl [sucralose]		failed to stabilize the NCs
OC[C@H]1O[C@@](CO)(O[C@H]2O[C@H](CO)[C@@H](O)[C@H](O)[C@H]2O)[C@@H](O)[C@@H]1O [sucrose]		failed to stabilize the NCs
